The values below come from patent US20050277575A1, “Therapeutic compositions and methods for treating diseases that involve angiogenesis” (priority 2004, published 2005).

The subject of assay [1] is Human cerebral endothelial cells (HCEC). Kind of assay: Capillary tube formation in Matrigel, S100A4 induced angiogenesis. The class given is cell-based. The settings on record: primary HCEC in Matrigel. From the text: Human cerebral endothelial cells (HCEC) were isolated using previously described protocols (Stanimirovic, D., P. Morley, et al. (1996). “Angiotensin II-induced fluid phase endocytosis in human cerebromicrovascular endothelial cells is regulated by the inositol-phosphate signaling pathway.” J Cell Physiol 169(3): 455-67.). Purity of HCEC cultures generated by these procedures was routinely assessed by the immunocytochemical staining for Factor VIII-related antigen and the lack of staining for smooth muscle β-actin, and is estimated to be >95%. The morphological, phenotypic, biochemical and functional characteristics of these HCEC cultures have been described in detail previously (Muruganandam, A., L. M Herx, et al. (1997). “Development of immortalized human cerebromicrovascular endothelial cell line as an in vitro model of the human blood-brain barrier.” Faseb J 11(13): 1187-97).
HCEC were seeded (8×10^4 cells) on a semi-solid basement membrane matrix, Matrigel™ (Collaborative Biomedical Products, Bedford, Mass.)-coated 24-well plates and exposed to serum-free media containing various treatments. […] Confocal apertures for each recorded wavelength were adjusted to a full width half maximum of 20 μm. […] Eight to 32 individual optical sections were collected and the average was calculated. […]

The target of assay [2] is T1, S100A4 (Homo sapiens, UniProt P26447).
T1 construct: GST (N); made in house; host or cells: E. coli ER2507
T1 sequence (P26447 whole entry): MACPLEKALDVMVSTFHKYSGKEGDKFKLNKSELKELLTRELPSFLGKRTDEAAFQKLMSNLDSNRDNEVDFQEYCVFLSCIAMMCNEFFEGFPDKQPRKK
Kind of assay: Modulation of S100A4 dependent tPA-mediated conversion of plasminogen to plasmin by peptides and chimera. The class given is biochemical. Here is the method: The effects of peptide SEQ ID 6, peptide SEQ ID 38 and chimera SEQ ID 39 on acceleration oft-PA-mediated conversion of plasminogen to plasmin induced by S100A4 were measured. The kinetics of t-PA-mediated plasminogen activation were determined by measuring the amidolytic activity of plasmin formed during activation of plasminogen. All the experiments were done in 100 μl volume in 96-well plates in triplicates. Glu-plasminogen (Calbiochem) at the concentration of 100 nM was preincubated at 25° C. for 1 h in the presence or absence of 1 μM recombinant S100A4 in a buffer consisting of 50 mM Tris-HCl, pH 7.4, 100 mM NaCl and 5 mM CaCl2 or 5 mM EGTA. In some experiments, different concentrations of peptides or chimera were preincubated together with proteins. The reaction was initiated by addition of 5 nM t-PA (Calbiochem) and 125 μM chromogenic plasmin substrate, Chromozym PL (Roche). The reactions were monitored at 405 nm for 1.5 h in a SPECTRAmax PLUS^384 microplate spectrophotometer (Molecular Devices) under control of the SOFTmax PRO kinetic program (Molecular Devices). The initial rates of plasmin generation, during the first 10-15 min, were calculated using linear regression analysis of plots of A405 nm versus time 2. The initial rates of plasmin generation were reported in units (K) of A405 nm/min^2×10^3. […] The titration data were analyzed with the four-parameter logistic equation K=(A−D)/(1+(x/C)^B)D. If A, asymptotic minimum, =0, this equation is converted to the Michaelis-Menten equation K=D/(1+(C/[S])^B), where [S] is substrate concentration, D=Vmax, C=Km, and B is the Hill coefficient.
Peptides SEQ ID 6 and SEQ ID 38 inhibited the accelerating effect of S100A4 on t-PA-dependent conversion of plasminogen to plasmin in concentration—dependent manner.
On the other hand, chimera SEQ ID 39 additionally accelerated plasmin formation already accelerated by S100A4.

Regarding “Ac-AGLREVYGASLASYMERW-NH2 [SEQ ID 6, Ac-AGLREVYGASLASYMERW-amide]”, the “inhibition of S100A4-induced formation of capillary-like tubes” value in assay [1] is given as “completely inhibit”. Besides, the “effect on S100A4 acceleration at 15 μM peptide” value in assay [2] (15 μM peptide) is on record as “totally neglected the effect of S100A4”. In addition, the IC50 in assay [2] (peptides titrated 0.1-100 μM, 1 μM S100A4, read-out: IC50 for inhibition of accelerating effect of S100A4 on t-PA-dependent conversion of plasminogen to plasmin) is 6 µM.

By IC50 is commonly meant the concentration at which inhibition is half-maximal.
